In ChEMBL document CHEMBL5370557, “Structure-based discovery of IHMT-IDH1-053 as a potent irreversible IDH1 mutant selective inhibitor” (Eur J Med Chem, 2023) one finds IC50 data, which are given here for 38 compounds.

Test [1] concerns the target T1, Isocitrate dehydrogenase [NADP] cytoplasmic (Homo sapiens, UniProt O75874, R132H). Briefly: Inhibition of IDH1 R132H mutant (unknown origin) expressed in Escherichia coli BL21 (DE3) assessed as NADPH consumption using alpha-KG as substrate measured after 60 mins.
Test [2] addresses T1, Isocitrate dehydrogenase [NADP] cytoplasmic. The test can be described thus: Inhibition of IDH1 R132H mutant (unknown origin) expressed in HEK293T cells assessed as inhibition of 2-HG generation measured after 48 hrs by LC-MS/MS analysis. Format: cell-based.

T1 sequence (O75874 2-414 R132H limits assumed): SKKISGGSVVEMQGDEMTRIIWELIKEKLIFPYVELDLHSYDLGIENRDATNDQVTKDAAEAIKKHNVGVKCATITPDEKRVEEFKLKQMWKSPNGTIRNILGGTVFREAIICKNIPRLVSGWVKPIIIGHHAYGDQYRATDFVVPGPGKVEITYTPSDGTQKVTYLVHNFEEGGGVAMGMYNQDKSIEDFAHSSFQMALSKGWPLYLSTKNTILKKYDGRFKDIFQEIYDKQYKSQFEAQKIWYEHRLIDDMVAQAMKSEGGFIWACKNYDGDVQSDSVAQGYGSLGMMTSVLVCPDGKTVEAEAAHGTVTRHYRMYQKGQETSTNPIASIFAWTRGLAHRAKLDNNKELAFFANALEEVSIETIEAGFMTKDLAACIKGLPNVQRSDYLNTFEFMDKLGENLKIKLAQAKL

In general, IC50 refers to the concentration that gives 50% inhibition. Regarding `CCS(=O)(=O)Nc1ccc(Nc2ccc([C@H](C)Nc3ccc(C#N)cn3)cc2)cc1N(C)C`, the IC50 in test [1] worked out at 2770 nM. Same read-out and setting: with `CC(C)[C@H]1COC(=O)N1c1nc(N[C@@H](C)c2ccc(N3CCCC(NC(=O)CCl)C3)cc2)ncc1F` (stereo partly drawn) the figure was 516 nM; with `C=CS(=O)(=O)Nc1ccc(Nc2ccc([C@H](C)Nc3ccc(C#N)cn3)cc2)cc1N(C)C`, 6320 nM.

Turning to `C=CS(=O)(=O)NC1CCN(c2ccc([C@H](C)Nc3ncc(C#N)cn3)cc2)CC1`, the half-inhibitory concentration (IC50) in test [1] is 4490 nM. As to `C=CS(=O)(=O)Nc1ccc(Nc2ccc([C@H](C)Nc3ncc(F)c(N4C(=O)OC[C@@H]4C(C)C)n3)cc2)cc1N1CCOCC1`, the results for the IC50 in test [1] and in test [2] were 87 nM and 1500 nM, respectively. As to `CCS(=O)(=O)NC1CCN(c2ccc([C@H](C)Nc3nccc(N4C(=O)OC[C@@H]4C(C)C)n3)cc2)CC1`, in test [1], the IC50 was 541 nM. As to `C=CS(=O)(=O)Nc1ccc(Nc2ccc([C@H](C)Nc3nccc(N4C(=O)OC[C@@H]4C(C)C)n3)cc2)cc1N1CCN(CC)CC1`, the IC50 in test [1] was determined as 547 nM.

In the case of `C=CS(=O)(=O)Nc1ccc(Nc2ccc([C@H](C)Nc3ncc(F)c(N4C(=O)OC[C@@H]4C(C)C)n3)cc2)cc1C`, the results for the IC50 in test [1] and in test [2] were 88 nM and 866 nM, respectively. On to `C=CC(=O)Nc1cc(-c2ccc([C@H](C)Nc3ncc(F)c(N4C(=O)OC[C@@H]4C(C)C)n3)cc2)ccc1N(C)C`, for which the IC50 in test [1] worked out at 630 nM. On the same count and under the same terms, as for `CCC(=O)Nc1cc(Nc2ccc([C@H](C)Nc3ncc(F)c(N4C(=O)OC[C@@H]4C(C)C)n3)cc2)ccc1N(C)C`, the figure is 932 nM; as for `CCS(=O)(=O)N1CCC(Nc2ccc([C@H](C)Nc3nccc(N4C(=O)OC[C@@H]4C(C)C)n3)cc2)CC1`, 594 nM. For `CCC(=O)NC1CCCN(c2ccc([C@H](C)Nc3ncc(F)c(N4C(=O)OC[C@@H]4C(C)C)n3)cc2)C1` (stereo partly drawn), the IC50 in test [1] is 670 nM.

`C=CC(=O)Nc1ccc(Nc2ccc([C@H](C)Nc3ncc(F)c(N4C(=O)OC[C@@H]4C(C)C)n3)cc2)cc1N1CCOCC1`: the values for the IC50 in test [1] and in test [2] were 976 nM and 331 nM, respectively. On to `CCC(=O)Nc1cc(Nc2ccc([C@H](C)Nc3ncc(F)c(N4C(=O)OC[C@@H]4C(C)C)n3)cc2)ccc1N1CCOCC1`, for which the IC50 is 77 nM in test [1] and 126 nM in test [2]. `C=CC(=O)Nc1ccc(Nc2ccc([C@H](C)Nc3ccc(C#N)cn3)cc2)cc1N(C)C`: the concentration for half-maximal inhibition (IC50) in test [1] turned out to be 6130 nM.

`C=CC(=O)Nc1ccc(Nc2ccc([C@H](C)Nc3nccc(N4C(=O)OC[C@@H]4C(C)C)n3)cc2)cc1N1CCN(CC)CC1`: the IC50 in test [1] was determined as 898 nM. Take `C=CS(=O)(=O)Nc1ccc(Nc2ccc([C@H](C)Nc3ncc(F)c(N4C(=O)OC[C@@H]4C(C)C)n3)cc2)cc1OC`: the IC50 in test [1] is 55 nM; in test [2], 4750 nM. For `C=CS(=O)(=O)N1CCC(Nc2ccc([C@H](C)Nc3ncc(F)c(N4C(=O)OC[C@@H]4C(C)C)n3)cc2)CC1`, the IC50 is 42 nM in test [1] and 129 nM in test [2]. Take `C=CS(=O)(=O)NC1CCCN(c2ccc([C@H](C)Nc3ncc(F)c(N4C(=O)OC[C@@H]4C(C)C)n3)cc2)C1` (stereo partly drawn): the IC50 in test [1] was determined as 119 nM; in test [2], 214 nM. Taken in the same sequence, the figures for `C=CC(=O)NC1CCCN(c2ccc([C@H](C)Nc3ncc(F)c(N4C(=O)OC[C@@H]4C(C)C)n3)cc2)C1` (stereo partly drawn) were 440 nM and 295 nM. Taken in the same sequence, the figures for `C=CS(=O)(=O)Nc1ccc(Nc2ccc([C@H](C)Nc3ncc(F)c(N4C(=O)OC[C@@H]4C(C)C)n3)cc2)cc1F` were 5.9 nM and 45 nM.

With `C=CS(=O)(=O)Nc1ccc(Nc2ccc([C@H](C)Nc3ncc(F)c(N4C(=O)OC[C@@H]4C(C)C)n3)cc2)cc1N(C)C`, the IC50 in test [1] was 48 nM; in test [2], 1250 nM. For `CCS(=O)(=O)NC1CCN(c2ccc([C@H](C)Nc3ncc(C#N)cn3)cc2)CC1`, the IC50 in test [1] stood at 3490 nM.

Turning to `CC(C)[C@H]1COC(=O)N1c1nc(N[C@@H](C)c2ccc(Nc3ccc(NC(=O)CCl)c(N4CCOCC4)c3)cc2)ncc1F`, the IC50 in test [1] is greater than 10000 nM; in test [2], 10000 nM. In the case of `C=CS(=O)(=O)N1CCC(Nc2ccc([C@H](C)Nc3nccc(N4C(=O)OC[C@@H]4C(C)C)n3)cc2)CC1`, the IC50 in test [1] was 161 nM; in test [2], 171 nM.

For `C=CC(=O)Nc1cc(Nc2ccc([C@H](C)Nc3ncc(F)c(N4C(=O)OC[C@@H]4C(C)C)n3)cc2)ccc1N1CCOCC1`, the IC50 was 205 nM in test [1] and 288 nM in test [2].

`C=CC(=O)Nc1cc(Nc2ccc([C@H](C)Nc3ncc(F)c(N4C(=O)OC[C@@H]4C(C)C)n3)cc2)ccc1N(C)C`: the results for the IC50 in test [1] and in test [2] were 155 nM and 114 nM, respectively. `CCC(=O)NC1CCN(c2ccc([C@H](C)Nc3ncc(F)c(N4C(=O)OC[C@@H]4C(C)C)n3)cc2)CC1`: the IC50 in test [1] worked out at 198 nM.

Turning to `CCC(=O)Nc1ccc(Nc2ccc([C@H](C)Nc3ncc(F)c(N4C(=O)OC[C@@H]4C(C)C)n3)cc2)cc1N1CCOCC1`, the IC50 was greater than 10000 nM in test [1] and 10000 nM in test [2]. For the compound `C=CS(=O)(=O)Nc1ccc(Nc2ccc([C@H](C)Nc3ncc(F)c(N4C(=O)OC[C@@H]4C(C)C)n3)cc2)cc1N1CCN(CC)CC1`, the values for the IC50 in test [1] and in test [2] were 245 nM and 864 nM, respectively.

Regarding `CCS(=O)(=O)NC1CCN(c2ccc([C@H](C)Nc3ncc(F)c(N4C(=O)OC[C@@H]4C(C)C)n3)cc2)CC1`, the IC50 in test [1] was 143 nM; in test [2], 1470 nM. As for `C=CC(=O)NC1CCN(c2ccc([C@H](C)Nc3nccc(N4C(=O)OC[C@@H]4C(C)C)n3)cc2)CC1`, the IC50 in test [1] is 6510 nM. As for `C=CS(=O)(=O)NC1CCN(c2ccc([C@H](C)Nc3nccc(N4C(=O)OC[C@@H]4C(C)C)n3)cc2)CC1`, the IC50 in test [1] came to 192 nM; in test [2] it was 37 nM. Consider `C=CC(=O)NC1CCN(c2ccc([C@H](C)Nc3ncc(F)c(N4C(=O)OC[C@@H]4C(C)C)n3)cc2)CC1`, for which the IC50 came to 187 nM in test [1] and 462 nM in test [2].

For the compound `C=CS(=O)(=O)Nc1cc(Nc2ccc([C@H](C)Nc3ncc(F)c(N4C(=O)OC[C@@H]4C(C)C)n3)cc2)ccc1N(C)C`, the half-inhibitory concentration (IC50) in test [1] turned out to be 151 nM; in test [2], 367 nM. Turning to `CCC(=O)Nc1ccc(Nc2ccc([C@H](C)Nc3nccc(N4C(=O)OC[C@@H]4C(C)C)n3)cc2)cc1N1CCN(CC)CC1`, the IC50 in test [1] came out at 2760 nM.

For `CC(C)[C@H]1COC(=O)N1c1nc(N[C@@H](C)c2ccc(N3CCC(NC(=O)CCl)CC3)cc2)ncc1F`, in test [1], the IC50 came out at 87 nM. In the case of `CCC(=O)Nc1cc(-c2ccc([C@H](C)Nc3ncc(F)c(N4C(=O)OC[C@@H]4C(C)C)n3)cc2)ccc1N(C)C`, the IC50 in test [1] is 741 nM.
